# Experimental data reported in US20200261391A1, “METHODS OF REDUCING THE RISK OF A CARDIOVASCULAR EVENT IN A STATIN-TREATED SUBJECT BY INCREASING SERUM AND PLASMA EPA AND DPA LEVELS” (Amarin Pharmaceuticals Ireland Limited, priority 2019, published 2020).
# System: TG, non-HDL-C, LDL-C, HDL-C, apo B, hsCRP
# Experiment: REDUCE-IT trial: fasting lipid, lipoprotein and inflammatory marker data over time
# Format: in vivo, human
# Protocol: Fasting Lipid Profile: The fasting lipid panel included: TG, TC, LDL-C, HDL-C, non-HDL-C, and VLDL-C. At all visits, LDL-C was calculated using the Friedewald equation. At Visit 1 and Visit 1.1 direct LDL-C were used if at the same visit TG>400 mg/dL (4.52 mmol/L). These LDL-C values were used for the evaluation of the LDL-C inclusion criterion (LDL-C qualifying measurements for randomization) and for the assessment of changes in the statin therapy when LDL-C was not at goal. […] In addition, irrespective of the TG levels, at Visit 2 (0 Months of Follow-up, baseline) and at Visit 4 (12 Months of Follow-up), LDL-C were measured by preparative ultracentrifugation. These preparative ultracentrifugation LDL-C measurements were used in the statistical analysis including the calculation of the percent change from baseline (1 year versus baseline). Hopkins LDL-C was calculated for each visit.
# Biomarkers Assays: The biomarker assays included: hsCRP, Apo B and hsTnT.
# The fasting lipid panel was tested at Screening (Visit 1 or Visit 1.1), Randomization visit (Visit 2; Day 0), Visit 3 (Day 120; ˜4 Months) and all other follow-up visits including the last visit. For change from baseline to 1 year preparative ultracentrifugation measurements for LDL-C were analyzed, unless this value was missing. If the LDL-C preparative ultracentrifugation values were missing, then another LDL-C value was used, with prioritization of values obtained from LDL-C Direct measurements, followed by LDL-C derived by the Friedewald calculation (only for subjects with TG<400 mg/dL), and finally LDL-C derived using the calculation published by Hopkins University investigators (Martin S S, Blaha M J, Elshazly M B, et al. Comparison of a novel method vs the Friedewald equation for estimating low-density lipoprotein cholesterol levels from the standard lipid profile. JAMA. 2013; 310:2061-8.). In addition, change from baseline to day 120 in LDL-C utilizing Friedewald's and Hopkins methods was analyzed, using the arithmetic mean of LDL-C obtained at Visit 2 (Day 0) and the preceding Visit 1 (or Visit 1.1). If one of these values was missing, the single available LDL-C value was used. LDL-C according to Hopkins was calculated at each visit.
# The randomization visit was considered Baseline. If a baseline value was not available from the randomization visit, then the latest screening value was used. For measurements of lipids, lipoproteins and inflammatory markers, the change and the percent change were summarized at each visit. Since these biomarkers are typically not normally distributed, the Wilcoxon rank-sum test was used for treatment comparisons of the percent change from baseline, and medians and quartiles were provided for each treatment group. The medians of the differences between the treatment groups and 95% CIs were estimated with the Hodges-Lehmann method. In addition, shift-tables were generated as appropriate.
smiles,measurement,setting,value
"CC/C=C\C/C=C\C/C=C\C/C=C\C/C=C\CCCC(=O)OCC [icosapent ethyl, eicosapentaenoic acid ethyl ester]",Apo B Median Observed Value,Year 2,80.0 mg/dL
same,HDL-C Median % Change from Baseline,Year 2,0.0%
same,HDL-C Median Absolute Change from Baseline,Year 2,0.0 mg/dL
same,HDL-C Median Observed Value,Year 2,40.0 mg/dL
same,LDL-C Hopkins Median % Change from Baseline,Year 2,−0.2%
same,LDL-C Hopkins Median Absolute Change from Baseline,Year 2,-0.1 mg/dL
same,LDL-C Hopkins Median Observed Value,Year 2,85.5 mg/dL
same,Log hsCRP Median % Change from Baseline,Year 2,−21.8%
same,Log hsCRP Median Absolute Change from Baseline,Year 2,−0.1 mg/L
same,Log hsCRP Median Observed Value,Year 2,0.6 mg/L
same,Non-HDL-C Median % Change from Baseline,Year 2,−3.1%
same,Non-HDL-C Median Absolute Change from Baseline,Year 2,-3.5 mg/dL
same,Non-HDL-C Median Observed Value,Year 2,113.0 mg/dL
same,Triglycerides Median % Change from Baseline,Year 2,−18.9%
same,Triglycerides Median Absolute Change from Baseline,Year 2,-38.5 mg/dL
same,Triglycerides Median Observed Value,Year 2,173.0 mg/dL
same,hsCRP Median % Change from Baseline,Year 2,−13.9%
same,hsCRP Median Absolute Change from Baseline,Year 2,-0.2 mg/L
same,hsCRP Median Observed Value,Year 2,1.8 mg/L
same,Apo B Between Group Difference Median % Change from Baseline,"Year 2, vs placebo",−9.7%
same,Apo B Between Group Difference Median Absolute Change from Baseline,"Year 2, vs placebo",-8.0 mg/dL
same,HDL-C Between Group Difference Median % Change from Baseline,"Year 2, vs placebo",−4.6%
same,HDL-C Between Group Difference Median Absolute Change from Baseline,"Year 2, vs placebo",-2.0 mg/dL
same,LDL-C Hopkins Between Group Difference Median % Change from Baseline,"Year 2, vs placebo",−11.1%
same,LDL-C Hopkins Between Group Difference Median Absolute Change from Baseline,"Year 2, vs placebo",-9.4 mg/dL
same,Log hsCRP Between Group Difference Median % Change from Baseline,"Year 2, vs placebo",−22.5%
same,Log hsCRP Between Group Difference Median Absolute Change from Baseline,"Year 2, vs placebo",−0.4 mg/L
same,Non-HDL-C Between Group Difference Median % Change from Baseline,"Year 2, vs placebo",−12.5%
same,Non-HDL-C Between Group Difference Median Absolute Change from Baseline,"Year 2, vs placebo",-14.5 mg/dL
same,Triglycerides Between Group Difference Median % Change from Baseline,"Year 2, vs placebo",−19.7%
same,Triglycerides Between Group Difference Median Absolute Change from Baseline,"Year 2, vs placebo",-43.8 mg/dL
same,hsCRP Between Group Difference Median % Change from Baseline,"Year 2, vs placebo",−39.9%
same,hsCRP Between Group Difference Median Absolute Change from Baseline,"Year 2, vs placebo",-0.9 mg/L
same,HDL-C Median % Change from Baseline,Year 3,0.0%
same,HDL-C Median Absolute Change from Baseline,Year 3,0.0 mg/dL
same,HDL-C Median Observed Value,Year 3,40.0 mg/dL
same,LDL-C Hopkins Median % Change from Baseline,Year 3,−1.2%
same,LDL-C Hopkins Median Absolute Change from Baseline,Year 3,-1.0 mg/dL
same,LDL-C Hopkins Median Observed Value,Year 3,84.6 mg/dL
same,Non-HDL-C Median % Change from Baseline,Year 3,−4.2%
same,Non-HDL-C Median Absolute Change from Baseline,Year 3,-4.8 mg/dL
same,Non-HDL-C Median Observed Value,Year 3,112.0 mg/dL
same,Triglycerides Median % Change from Baseline,Year 3,−21.7%
same,Triglycerides Median Absolute Change from Baseline,Year 3,-44.0 mg/dL
same,Triglycerides Median Observed Value,Year 3,167.0 mg/dL
same,HDL-C Between Group Difference Median % Change from Baseline,"Year 3, vs placebo",−3.8%
same,HDL-C Between Group Difference Median Absolute Change from Baseline,"Year 3, vs placebo",-1.5 mg/dL
same,LDL-C Hopkins Between Group Difference Median % Change from Baseline,"Year 3, vs placebo",−10.4%
same,LDL-C Hopkins Between Group Difference Median Absolute Change from Baseline,"Year 3, vs placebo",-8.7 mg/dL
same,Non-HDL-C Between Group Difference Median % Change from Baseline,"Year 3, vs placebo",−12.4%
same,Non-HDL-C Between Group Difference Median Absolute Change from Baseline,"Year 3, vs placebo",-14.5 mg/dL
same,Triglycerides Between Group Difference Median % Change from Baseline,"Year 3, vs placebo",−20.3%
same,Triglycerides Between Group Difference Median Absolute Change from Baseline,"Year 3, vs placebo",-45.5 mg/dL
same,HDL-C Median % Change from Baseline,Year 4,1.0%
same,HDL-C Median Absolute Change from Baseline,Year 4,0.5 mg/dL
same,HDL-C Median Observed Value,Year 4,40.5 mg/dL
same,LDL-C Hopkins Median % Change from Baseline,Year 4,−0.6%
same,LDL-C Hopkins Median Absolute Change from Baseline,Year 4,-0.5 mg/dL
same,LDL-C Hopkins Median Observed Value,Year 4,83.6 mg/dL
same,Non-HDL-C Median % Change from Baseline,Year 4,−4.2%
same,Non-HDL-C Median Absolute Change from Baseline,Year 4,-5.0 mg/dL
same,Non-HDL-C Median Observed Value,Year 4,110.5 mg/dL
same,Triglycerides Median % Change from Baseline,Year 4,−21.7%
same,Triglycerides Median Absolute Change from Baseline,Year 4,-42.5 mg/dL
same,Triglycerides Median Observed Value,Year 4,163.0 mg/dL
same,HDL-C Between Group Difference Median % Change from Baseline,"Year 4, vs placebo",−3.9%
same,HDL-C Between Group Difference Median Absolute Change from Baseline,"Year 4, vs placebo",-1.5 mg/dL
same,LDL-C Hopkins Between Group Difference Median % Change from Baseline,"Year 4, vs placebo",−10.6%
same,LDL-C Hopkins Between Group Difference Median Absolute Change from Baseline,"Year 4, vs placebo",-8.9 mg/dL
same,Non-HDL-C Between Group Difference Median % Change from Baseline,"Year 4, vs placebo",−12.0%
same,Non-HDL-C Between Group Difference Median Absolute Change from Baseline,"Year 4, vs placebo",-14.0 mg/dL
same,Triglycerides Between Group Difference Median % Change from Baseline,"Year 4, vs placebo",−17.4%
same,Triglycerides Between Group Difference Median Absolute Change from Baseline,"Year 4, vs placebo",-38.0 mg/dL
same,HDL-C Median % Change from Baseline,Year 5,0.0%
same,HDL-C Median Absolute Change from Baseline,Year 5,0.0 mg/dL
same,HDL-C Median Observed Value,Year 5,41.0 mg/dL
same,LDL-C Hopkins Median % Change from Baseline,Year 5,−0.7%
same,LDL-C Hopkins Median Absolute Change from Baseline,Year 5,-0.8 mg/dL
same,LDL-C Hopkins Median Observed Value,Year 5,82.2 mg/dL
same,Non-HDL-C Median % Change from Baseline,Year 5,−4.4%
same,Non-HDL-C Median Absolute Change from Baseline,Year 5,-5.0 mg/dL
same,Non-HDL-C Median Observed Value,Year 5,109.0 mg/dL
same,Triglycerides Median % Change from Baseline,Year 5,−20.0%
same,Triglycerides Median Absolute Change from Baseline,Year 5,-38.0 mg/dL
same,Triglycerides Median Observed Value,Year 5,158.0 mg/dL
same,HDL-C Between Group Difference Median % Change from Baseline,"Year 5, vs placebo",−3.0%
same,HDL-C Between Group Difference Median Absolute Change from Baseline,"Year 5, vs placebo",-1.5 mg/dL
same,LDL-C Hopkins Between Group Difference Median % Change from Baseline,"Year 5, vs placebo",−8.0%
same,LDL-C Hopkins Between Group Difference Median Absolute Change from Baseline,"Year 5, vs placebo",-6.6 mg/dL
same,Non-HDL-C Between Group Difference Median % Change from Baseline,"Year 5, vs placebo",−9.9%
same,Non-HDL-C Between Group Difference Median Absolute Change from Baseline,"Year 5, vs placebo",-11.0 mg/dL
same,Triglycerides Between Group Difference Median % Change from Baseline,"Year 5, vs placebo",−16.7%
same,Triglycerides Between Group Difference Median Absolute Change from Baseline,"Year 5, vs placebo",-33.5 mg/dL
same,reduction in hsCRP,in vivo,40%
